In patent publication US7041851B2, “Fluorinated phenyl thiophenyl derivatives and their use for imaging serotonin transporters” (The Trustees of the University of Pennsylvania, priority 2002, dated 2006):

Assays:
SERT = molecular target: T1, SERT (Rattus norvegicus, UniProt P31652); experiment: Pretreatment with monoamine reuptake inhibitors, specific binding of [18F]ACF in rat brain regions; type: in vivo, rats; set-up: Tracer uptake: Cortex / Tracer uptake: Remainder / Tracer uptake: Hypothalamus / Tracer uptake: Whole brain / Tracer uptake: Blood / Tracer uptake: Cerebellum / Tracer uptake: Striatum / Tracer uptake: Hippocampus: unit not given here; settings: for Ratio to Cerebellum: Cerebellum / Ratio to Cerebellum: Cortex / Ratio to Cerebellum: Hippocampus / Ratio to Cerebellum: Hypothalamus / Ratio to Cerebellum: Remainder / Ratio to Cerebellum: Striatum / Tracer uptake: Blood / Tracer uptake: Cerebellum / Tracer uptake: Cortex / Tracer uptake: Hippocampus / Tracer uptake: Hypothalamus / Tracer uptake: Remainder / Tracer uptake: Striatum / Tracer uptake: Whole brain: 1 h after tracer
T1 construct: from tissue; host or cells: rat brain in vivo (hypothalamus, striatum, hippocampus, cerebellum)
T1 sequence (P31652 whole entry): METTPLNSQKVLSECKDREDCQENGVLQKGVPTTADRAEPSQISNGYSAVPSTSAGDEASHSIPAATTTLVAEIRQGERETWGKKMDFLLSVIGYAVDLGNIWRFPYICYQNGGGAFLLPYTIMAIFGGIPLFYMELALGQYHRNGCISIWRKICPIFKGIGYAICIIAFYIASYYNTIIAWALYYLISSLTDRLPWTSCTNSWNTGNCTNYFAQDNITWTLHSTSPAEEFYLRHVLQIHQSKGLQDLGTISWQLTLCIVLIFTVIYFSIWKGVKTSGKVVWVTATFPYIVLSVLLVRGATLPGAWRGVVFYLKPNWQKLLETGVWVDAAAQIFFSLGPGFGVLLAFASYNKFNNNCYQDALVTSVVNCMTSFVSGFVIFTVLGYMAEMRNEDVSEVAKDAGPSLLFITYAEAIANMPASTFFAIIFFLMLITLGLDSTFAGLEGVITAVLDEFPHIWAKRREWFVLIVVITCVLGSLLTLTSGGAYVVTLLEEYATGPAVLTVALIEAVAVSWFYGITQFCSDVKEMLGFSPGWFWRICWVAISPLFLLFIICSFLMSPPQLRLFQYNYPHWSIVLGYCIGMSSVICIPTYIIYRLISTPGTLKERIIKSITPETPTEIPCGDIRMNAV

[1] = In vivo metabolism of [18F]ACF in rats; settings: three rats, one hour after iv injection
Experimental: In vivo metabolism of [^18F]ACF ([^18F]25), in three rats was evaluated at one hour after iv injection.

[2] = Organ distribution and brain regional uptake of [18F]ACF in rats
[3] = rats, Control (saline-pretreated)
[4] = rats, pretreated (+)McN5652 2 mg/kg iv 5 min prior
[5] = rats, pretreated Methylphenidate 2 mg/kg iv 5 min prior
[6] = rats, pretreated Nisoxetine 2 mg/kg iv 5 min prior

CN(C)Cc1ccccc1Sc1cc([18F])c(Cl)cc1N [[^18F]ACF]
Specific retention in brain regions after pretreatment (SERT; rats pretreated with methylphenidate): No significant differences
Specific retention in brain regions after pretreatment (SERT; rats pretreated with nisoxetine): No significant differences
Specific retention in hypothalamus, striatum and hippocampus after pretreatment (SERT; rats, 60 min, (+)McN5652 2 mg/Kg 5 min prior to tracer injection): significant decrease
Ratio to Cerebellum: Cerebellum (SERT; [3]): 1.00 ± 0.00
Ratio to Cerebellum: Cortex (SERT; [3]): 1.86 ± 0.05
Ratio to Cerebellum: Hippocampus (SERT; [3]): 2.52 ± 0.13
Ratio to Cerebellum: Hypothalamus (SERT; [3]): 2.96 ± 0.03
Ratio to Cerebellum: Remainder (SERT; [3]): 2.26 ± 0.03
Ratio to Cerebellum: Striatum (SERT; [3]): 2.63 ± 0.23
Tracer uptake: Blood (SERT; [3]): 0.26 ± 0.03
Tracer uptake: Cerebellum (SERT; [3]): 0.21 ± 0.02
Tracer uptake: Cortex (SERT; [3]): 0.39 ± 0.03
Tracer uptake: Hippocampus (SERT; [3]): 0.53 ± 0.03
Tracer uptake: Hypothalamus (SERT; [3]): 0.63 ± 0.05
Tracer uptake: Remainder (SERT; [3]): 0.48 ± 0.04
Tracer uptake: Striatum (SERT; [3]): 0.56 ± 0.09
Tracer uptake: Whole brain (SERT; [3]): 0.81 ± 0.09
Ratio to Cerebellum: Cerebellum (SERT; [4]): 1.00 ± 0.00
Ratio to Cerebellum: Cortex (SERT; [4]): 1.43 ± 0.27
Ratio to Cerebellum: Hippocampus (SERT; [4]): 1.93 ± 0.21
Ratio to Cerebellum: Hypothalamus (SERT; [4]): 1.36 ± 0.15
Ratio to Cerebellum: Remainder (SERT; [4]): 1.37 ± 0.16
Ratio to Cerebellum: Striatum (SERT; [4]): 1.48 ± 0.32
Tracer uptake: Blood (SERT; [4]): 0.26 ± 0.03
Tracer uptake: Cerebellum (SERT; [4]): 0.17 ± 0.03
Tracer uptake: Cortex (SERT; [4]): 0.24 ± 0.02
Tracer uptake: Hippocampus (SERT; [4]): 0.34 ± 0.06
Tracer uptake: Hypothalamus (SERT; [4]): 0.24 ± 0.03
Tracer uptake: Remainder (SERT; [4]): 0.23 ± 0.01
Tracer uptake: Striatum (SERT; [4]): 0.25 ± 0.03
Tracer uptake: Whole brain (SERT; [4]): 0.42 ± 0.02
Ratio to Cerebellum: Cerebellum (SERT; [5]): 1.00 ± 0.00
Ratio to Cerebellum: Cortex (SERT; [5]): 2.02 ± 0.21
Ratio to Cerebellum: Hippocampus (SERT; [5]): 2.50 ± 0.15
Ratio to Cerebellum: Hypothalamus (SERT; [5]): 3.05 ± 0.14
Ratio to Cerebellum: Remainder (SERT; [5]): 2.23 ± 0.05
Ratio to Cerebellum: Striatum (SERT; [5]): 2.75 ± 0.09
Tracer uptake: Blood (SERT; [5]): 0.28 ± 0.02
Tracer uptake: Cerebellum (SERT; [5]): 0.17 ± 0.02
Tracer uptake: Cortex (SERT; [5]): 0.35 ± 0.03
Tracer uptake: Hippocampus (SERT; [5]): 0.43 ± 0.03
Tracer uptake: Hypothalamus (SERT; [5]): 0.52 ± 0.07
Tracer uptake: Remainder (SERT; [5]): 0.38 ± 0.05
Tracer uptake: Striatum (SERT; [5]): 0.47 ± 0.06
Tracer uptake: Whole brain (SERT; [5]): 0.67 ± 0.04
Ratio to Cerebellum: Cerebellum (SERT; [6]): 1.00 ± 0.00
Ratio to Cerebellum: Cortex (SERT; [6]): 1.94 ± 0.16
Ratio to Cerebellum: Hippocampus (SERT; [6]): 2.44 ± 0.11
Ratio to Cerebellum: Hypothalamus (SERT; [6]): 2.89 ± 0.11
Ratio to Cerebellum: Remainder (SERT; [6]): 2.17 ± 0.04
Ratio to Cerebellum: Striatum (SERT; [6]): 2.50 ± 0.12
Tracer uptake: Blood (SERT; [6]): 0.26 ± 0.01
Tracer uptake: Cerebellum (SERT; [6]): 0.19 ± 0.01
Tracer uptake: Cortex (SERT; [6]): 0.37 ± 0.04
Tracer uptake: Hippocampus (SERT; [6]): 0.46 ± 0.02
Tracer uptake: Hypothalamus (SERT; [6]): 0.55 ± 0.02
Tracer uptake: Remainder (SERT; [6]): 0.41 ± 0.01
Tracer uptake: Striatum (SERT; [6]): 0.47 ± 0.03
Tracer uptake: Whole brain (SERT; [6]): 0.74 ± 0.04
Activity extracted from the brain that was original compound (HPLC) [1]: 95.5±0.40%
Percentage of organic-extractable material, kidney [1]: 20.25±0.60%
Percentage of organic-extractable material, liver [1]: 20.03±6.60%
Percentage of organic-extractable material, plasma [1]: 6.76±1.00%
Organ distribution: Blood ([2]; 2 min after iv injection): 6.56 ± 0.64 % dose/organ
Organ distribution: Bone ([2]; 2 min after iv injection): 0.01 ± 0.00 % dose/organ
Organ distribution: Brain ([2]; 2 min after iv injection): 3.27±0.79 % dose/organ
Organ distribution: Heart ([2]; 2 min after iv injection): 1.69 ± 0.24 % dose/organ
Organ distribution: Kidney ([2]; 2 min after iv injection): 6.97 ± 0.73 % dose/organ
Organ distribution: Liver ([2]; 2 min after iv injection): 9.41 ± 1.82 % dose/organ
Organ distribution: Lung ([2]; 2 min after iv injection): 14.89 ± 2.28 % dose/organ
Organ distribution: Muscle ([2]; 2 min after iv injection): 14.34 ± 9.76 % dose/organ
Organ distribution: Skin ([2]; 2 min after iv injection): 4.76 ± 0.89 % dose/organ
Organ distribution: Spleen ([2]; 2 min after iv injection): 0.64 ± 0.20 % dose/organ
Ratio to Cerebellum: Cerebellum ([2]; 2 min after iv injection): 1.00 ± 0.00
Ratio to Cerebellum: Cortex ([2]; 2 min after iv injection): 1.84 ± 0.43
Ratio to Cerebellum: Hippocampus ([2]; 2 min after iv injection): 1.24 ± 0.15
Ratio to Cerebellum: Hypothalamus ([2]; 2 min after iv injection): 1.37 ± 0.19
Ratio to Cerebellum: Remainder ([2]; 2 min after iv injection): 1.32 ± 0.21
Ratio to Cerebellum: Striatum ([2]; 2 min after iv injection): 1.41 ± 0.31
Regional brain distribution: Cerebellum ([2]; 2 min after iv injection): 1.33 ± 0.51 % dose/g
Regional brain distribution: Cortex ([2]; 2 min after iv injection): 2.31 ± 0.46 % dose/g
Regional brain distribution: Hippocampus ([2]; 2 min after iv injection): 1.60 ± 0.46 % dose/g
Regional brain distribution: Hypothalamus ([2]; 2 min after iv injection): 1.76 ± 0.48 % dose/g
Regional brain distribution: Remainder ([2]; 2 min after iv injection): 1.69 ± 0.43 % dose/g
Regional brain distribution: Striatum ([2]; 2 min after iv injection): 1.78 ± 0.36 % dose/g
Organ distribution: Blood ([2]; 30 min after iv injection): 4.52 ± 0.22 % dose/organ
Organ distribution: Bone ([2]; 30 min after iv injection): 0.04 ± 0.03 % dose/organ
